Source: patent US20240344241A1, “PROTEINACEOUS MOLECULES AND USES THEREFOR” (THE UNIVERSITY OF QUEENSLAND, priority 2021, published 2024)
pKi: −log10 of the molar value. Bridge positions count the residues as written; N and C are the ends. Peptide text beside a SMILES is read from it.

What was measured:
human whole blood = assay: Activated clotting time (ACT) in human whole blood
Experimental: (§1) The anticoagulant activity of cyclic MCoFx7 was determined in human whole blood using two assays: activated clotting time (ACT) and rotational thromboelastometry (ROTEM). In ACT assays, the clotting time (y-axis) was increased in a dose-dependent manner from the control (124 s), reaching 223 s with 20 μM MCoFx7. […] Anticoagulant activity was verified by thromboelastometry (TEM) that was measured after activation of the intrinsic pathway (INTEM) (refer to FIG. 16). […] By comparison, a single concentration of cyclic [A25P]MCoFx7 (10 μM) produced a clotting time of 500 s, similar to cyclic MCoFx7 at 10 μM (469 s).
(§2) Activated clotting time (ACT) was measured in fresh whole blood using celite tubes with the Hemochron 401 coagulation analyzer (Soma Technology, Bloomfield, CT, USA). Whole blood clot formation was recorded by ROTEM® Thromboelastometry (Haemoview Diagnostics, Brisbane, Australia) using INTEM (contact factor-initiated coagulation) and HEPTEM (contact factor-initiated coagulation with heparinase) activating reagents according to the manufacturer's instructions.

Human β-FXIIa [1] = molecular target: T1, Human β-FXIIa (Homo sapiens, UniProt P00748); assay: FXIIa competitive inhibition assay, fluorescent substrate Boc-QGR-MCA; type: biochemical; settings: 0.5 nM FXIIa, 50 μM Boc-QGR-MCA; read-out: Ki for FXIIa, fluorescent substrate
T1 construct: Human β-FXIIa was obtained from Molecular Innovations, together with human FXa, human FXIa, human α-thrombin, and human plasma kallikrein; purchased Molecular Innovations; host or cells: purified from human plasma
Summary of the method: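 Human β-FXIIa (10 nM) preincubated to equilibrium with serially diluted inhibitors at room temperature in Tris pH 8.0 with NaCl, CaCl2 and Triton X-100. Activity followed with 100 μM Ac-QRFR-pNA (KM 162 μM) at 405 nm, or for later variants 0.5 nM enzyme with 50 μM Boc-QGR-MCA (KM 187 μM) by fluorescence. Ki from Morrison fits.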

[2] = test system: human whole blood, intrinsic pathway (INTEM); assay: Rotational thromboelastometry INTEM in human whole blood
Experimental: as §1, §2

human blood [3] = assay: INTEM assay of blood samples from the ex vivo ECMO model; settings: ECMO circuit, single dose 20 μM
Experimental: (§3) The duration of effect for each treatment was also monitored by taking blood samples from the circuit over time and performing clotting assays (refer to FIG. 18). In ACT assays, a clotting time of more than 200 s was maintained for cyclic MCoFx7 over the course of the experiment (>300 s from 0.5 h-6 h).
(§4) Ex vivo ECMO circuits (Permanent Life Support [PLS] System, Maquet C P, Rastatt, Germany) consisted of a Quadrox D Oxygenator and ROTAFLOW centrifugal pump, both incorporated into a tubing set, with a tip-to-tip BIOLINE (albumin and heparin) coating. Initially, the PLS system was primed with Plasma-Lyte 148 and heated to 37.8° C. […] Inlet and outlet pressures between the membrane oxygenator were monitored using a silicone-based pressure transducer (Omega Engineering, Norwalk, CT, USA) and were recorded as the delta oxygenator pressure (P). […]
as §2

human blood [4] = assay: HEPTEM assay of blood samples from the ex vivo ECMO model; settings: ECMO circuit, heparinase added
Experimental: as §3, §4, §2

human blood [5] = assay: ACT assay of blood samples from the ex vivo ECMO model; settings: ECMO circuit, single dose 20 μM
Experimental: as §3, §4, §2

[6] = test system: clotting via the intrinsic pathway; assay: Activated partial thromboplastin time (aPTT) assay in human plasma; type: biochemical
Text: (§5) Citrated, platelet-poor plasma samples from healthy adults were collected, prepared, and stored using previously established collection protocols, such as in Zdenek et al. (2019) Toxicol in Vitro, 58: 97-109.
(§6) Standard coagulation assays were used to determine the effect of the inhibitors on the clotting time of human plasma. Activated partial thromboplastin time (aPTT) uses a Kaolin reagent (clay) to activate the intrinsic/contact pathway of the coagulation cascade, whereas prothrombin time (PT) uses Neoplastine (lyophilized thromboplastin prepared from rabbit cerebral tissue) to activate the extrinsic/tissue-factor pathway of the coagulation cascade. A minor adjustment was made to both tests (addition of 25 μL inhibitor or buffer; refer to Table 17) to accommodate the addition of an inhibitor without changing the total volume (and therefore relative ratios of additives) of the assay. Concentrations of inhibitor are reported as the concentration at the point of incubation in the assay, i.e. not taking into account the addition of the start reagent (calcium for aPTT, or Neoplastine for PT).
(§7) Clotting time (seconds) of plasma was automatically measured using a STA-R Max® analyzer (Stago, Asnieres sur Seine, France). Measurements were conducted using a viscosity-based (mechanical) detection system, whereby opposing magnets oscillate a small metal spherical pellet inside the test cuvette (250 μL total volume) until a clot is formed. Dilution of the inhibitor in Owren-Koller (OK) buffer for dose-response curves was performed automatically by the machine. Reagents were kept at 15-19° C. in the machine during experimentation and otherwise stored at 4° C. All tests were performed in triplicate.

[7] = test system: clotting via the extrinsic pathway; assay: Prothrombin time (PT) assay in human plasma; type: biochemical; settings: at 10 μM
Text: as §5, §6, §7

Human β-FXIIa [8] = molecular target: T1, Human β-FXIIa; assay: FXIIa competitive inhibition assay, colorimetric substrate Ac-QRFR-pNA; type: biochemical
Summary of the method: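 Serially diluted inhibitors equilibrated at room temperature with 10 nM β-FXIIa in 0.1 M Tris-HCl pH 8.0, 0.1 M NaCl, 10 mM CaCl2, 0.005% Triton X-100; 100 μM Ac-QRFR-pNA (KM=162 μM), A405 over 7 min. Off-target proteases used differing enzyme/substrate levels, some with fluorogenic MCA substrates (ex 360/em 460 nm, 5-30 min). Morrison Ki by non-linear regression.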

[9] = molecular target: kallikrein-related peptidase 4 (KLK4) (Homo sapiens, UniProt Q9Y5K2); assay: KLK4 competitive inhibition assay; type: biochemical
Experimental: The inhibitor variants were screened against FXIIa and three off-target proteases, trypsin, matriptase and kallikrein-related peptidase 4 (KLK4), in competitive inhibition assays using a single concentration of inhibitor that ranged from 1.25 nM (KLK4) to 25 nM (FXIIa).
The activity of acyclic and cyclic MCoFx1-5 and analogues thereof was assessed in competitive inhibition assays, as previously described in Swedberg et al. (2016) J Med Chem, 59: 7287-7292. Human β-FXIIa was obtained from Molecular Innovations, together with human FXa, human FXIa, human α-thrombin, and human plasma kallikrein. Human cationic trypsin and human plasmin were obtained from Sigma-Aldrich, and recombinant human matriptase was sourced from R&D Systems. […] After adding 100 μM Ac-QRFR-pNA substrate (KM=162 μM), enzymatic activity was measured by monitoring release of the pNA moiety using a TECAN infinite M1000 Pro plate reader (A=405 nm, reading interval, 10 s; assay time course, 7 min). […] Substrate kinetic constants (Michaelis-Menten) and inhibition constants (Morrison K) were determined by non-linear regression using Prism 7 (GraphPad). […] For assays using a fluorescent substrate (peptide-4-methylcoumaryl-7-amide, MCA), black low-binding 96-well plates were used and activity was measured using a TECAN infinite M1000 pro plate reader (λex 360 nm, λem 460 nm, reading interval, 30 s; assay time course, 5-30 min).

Human trypsin = molecular target: T2, Human trypsin (Homo sapiens, UniProt P07477); assay: Trypsin competitive inhibition assay; type: biochemical
T2 construct: purchased Sigma-Aldrich; host or cells: purified from human tissue
Experimental: (§8) The activity of acyclic and cyclic MCoFx1-5 and analogues thereof was assessed in competitive inhibition assays, as previously described in Swedberg et al. (2016) J Med Chem, 59: 7287-7292. Human β-FXIIa was obtained from Molecular Innovations, together with human FXa, human FXIa, human α-thrombin, and human plasma kallikrein. Human cationic trypsin and human plasmin were obtained from Sigma-Aldrich, and recombinant human matriptase was sourced from R&D Systems. Recombinant human urokinase (uPA) and recombinant human tissue plasminogen activator (tPA) were expressed in Expi293 cells, as previously described in Li et al. (2019) Chembiochem, 20: 46-50. FXIIa inhibition assays were performed in clear, low-binding 96-well plates using 250 μL (final volume) of assay buffer (0.1 M Tris-HCl pH 8.0, 0.1 M NaCl, 10 mM CaCl2 and 0.005% Triton X-100). Inhibitors were serially diluted and incubated with 10 nM FXIIa at room temperature to reach equilibrium. After adding 100 μM Ac-QRFR-pNA substrate (KM=162 μM), enzymatic activity was measured by monitoring release of the pNA moiety using a TECAN infinite M1000 Pro plate reader (A=405 nm, reading interval, 10 s; assay time course, 7 min). Assays were conducted in three times in duplicate. Substrate kinetic constants (Michaelis-Menten) and inhibition constants (Morrison K) were determined by non-linear regression using Prism 7 (GraphPad). Selectivity assays with off-target proteases were performed in a similar way, except that different concentrations of enzyme and substrate were used, as indicated in Table 16. For assays using a fluorescent substrate (peptide-4-methylcoumaryl-7-amide, MCA), black low-binding 96-well plates were used and activity was measured using a TECAN infinite M1000 pro plate reader (λex 360 nm, λem 460 nm, reading interval, 30 s; assay time course, 5-30 min).

Rec. human matriptase = molecular target: T3, Rec. human matriptase (Homo sapiens, UniProt Q9Y5Y6); assay: Matriptase inhibition assay; type: biochemical
T3 construct: purchased R&D Systems
T3 sequence (Q9Y5Y6 615-855 limits assumed): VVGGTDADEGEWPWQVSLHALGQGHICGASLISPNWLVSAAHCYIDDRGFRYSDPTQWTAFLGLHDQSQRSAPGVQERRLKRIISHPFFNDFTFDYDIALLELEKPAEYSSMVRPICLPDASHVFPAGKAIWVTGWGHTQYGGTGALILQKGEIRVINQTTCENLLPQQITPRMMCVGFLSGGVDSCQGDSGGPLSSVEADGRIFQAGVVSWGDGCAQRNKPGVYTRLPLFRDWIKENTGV
Experimental: as §8

T1 sequence (P00748 373-615 limits assumed, other chains not shown): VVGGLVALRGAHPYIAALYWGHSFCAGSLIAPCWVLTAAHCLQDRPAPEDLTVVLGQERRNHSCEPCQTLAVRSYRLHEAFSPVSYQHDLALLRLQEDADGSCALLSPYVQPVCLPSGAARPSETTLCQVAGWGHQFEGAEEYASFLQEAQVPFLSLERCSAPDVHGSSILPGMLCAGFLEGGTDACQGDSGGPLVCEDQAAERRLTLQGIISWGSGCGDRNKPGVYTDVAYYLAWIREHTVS
Sequence of kallikrein-related peptidase 4 (KLK4) (Q9Y5K2 31-254): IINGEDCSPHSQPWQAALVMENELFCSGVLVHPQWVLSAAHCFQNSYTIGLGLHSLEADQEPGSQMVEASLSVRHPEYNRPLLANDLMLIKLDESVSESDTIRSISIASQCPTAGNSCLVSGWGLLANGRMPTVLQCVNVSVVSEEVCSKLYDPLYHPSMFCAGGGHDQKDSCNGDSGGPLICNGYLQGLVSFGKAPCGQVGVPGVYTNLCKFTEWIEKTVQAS

| Compound | ACT clotting time versus therapeutic range (180-220 s) (human whole blood; 10 μM or 20 μM) | ACT clotting time (human whole blood; 20 μM, human whole blood) [s] | pKi (Human β-FXIIa [1]) | INTEM clotting time ([2]; 10 μM) [s] | INTEM clotting time ([2]; 20 μM) [s] | INTEM anticoagulant activity, duration (human blood [3]) | HEPTEM anticoagulant activity (human blood [4]) | ACT clotting time (human blood [5]; from 0.5 h-6 h) [s] | ACT clotting time maintained over the course of the experiment (human blood [5]) | EC1.5× (concentration required to extend the clotting time by 50%) [6] [nM] | EC2× (doubling the clotting time) [6] [µM] | clotting time compared to control, PT assay [7] | change in Ki for FXIIa compared to M (Human β-FXIIa [8]) | fold change in activity for KLK4 compared to M [9] | Ki against trypsin (in words) (Human trypsin) | fold change in activity for trypsin compared to M (Human trypsin) | Ki against matriptase (in words) (Rec. human matriptase) | fold change in activity for matriptase compared to M (Rec. human matriptase) |
| --- | --- | --- | --- | --- | --- | --- | --- | --- | --- | --- | --- | --- | --- | --- | --- | --- | --- | --- |
| CC[C@H](C)[C@@H]1NC(=O)CNC(=O)CNC(=O)[C@H](CC(=O)O)NC(=O)[C@H](CO)NC(=O)CNC(=O)[C@H](CO)NC(=O)CNC(=O)[C@@H]2CSSC[C@@H]3NC(=O)[C@H](CC(=O)O)NC(=O)[C@H](CO)NC(=O)[C@H](CC(=O)O)NC(=O)[C@H](CCCNC(=N)N)NC(=O)[C@H](CCCNC(=N)N)NC(=O)[C@@H]4CSSC[C@H](NC(=O)[C@H]([C@@H](C)CC)NC(=O)[C@H](CSSC[C@H](NC1=O)C(=O)N1CCC[C@H]1C(=O)N[C@@H](CCCNC(=N)N)C(=O)N[C@@H]([C@@H](C)CC)C(=O)NCC(=O)N[C@@H](CCCNC(=N)N)C(=O)N[C@@H](CC(C)C)C(=O)N4)NC(=O)[C@H](C)NC(=O)CNC(=O)[C@@H]1CCCN1C3=O)C(=O)N[C@@H](CCCNC(=N)N)C(=O)N[C@@H](C)C(=O)N[C@@H]([C@@H](C)O)C(=O)N[C@@H](CCCNC(=N)N)C(=O)N[C@@H](Cc1ccccc1)C(=O)N2 [Cyclic MCoFx7] (cyclo(ACICRATRFCGSGSDGGICPRIGRLCRRDSDCPG); disulfide 2-19, 4-26, 10-32) | within the therapeutic range | 223 | 10.19 | 469 | 521 | anticoagulant activity was maintained for 6 h | independent of heparin | > 300 | more than 200 s | – | – | – | – | – | – | – | – | – |
| NH2-RVCPR[4-F-Phe]EKKCRRDSDCPGACICRGNGYCG-OH (RVCPRXEKKCRRDSDCPGACICRGNGYCG; 4-F-Phe non-natural residue; MOD_RES 6 4-fluoro-L-phenylalanine) [Peptide 1] | – | – | – | – | – | – | – | – | – | 840 | 2.9 | No effect on clotting time | three-fold | > 100,000 fold | in the micromolar range | 7,350 fold | in the micromolar range | 9,650 fold |
